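Method: 48-hour compound exposure of cells in 96-well plates, five concentrations, linear interpolation of endpoints. GI50: concentration for 50% inhibition of growth. Definition used: TGI = concentration required for complete inhibition of growth.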
Legend:
Assay in all cases: NCI tumour cell line growth inhibition, 48 h
TK-10 renal = tested on: TK-10 renal
UACC-62 melanoma = tested on: UACC-62 melanoma
SK-MEL-5 melanoma = tested on: SK-MEL-5 melanoma
786-0 renal = tested on: 786-0 renal
UACC-257 melanoma = tested on: UACC-257 melanoma
U251 CNS = tested on: U251 CNS
OVCAR-3 ovarian = tested on: OVCAR-3 ovarian
KM12 colon = tested on: KM12 colon
HOP-92 NSCLC = tested on: HOP-92 NSCLC
BT-549 breast = tested on: BT-549 breast
EKVX NSCLC = tested on: EKVX NSCLC
ACHN renal = tested on: ACHN renal
NCI-H226 lung = tested on: NCI-H226 lung
LOX IMVI melanoma = tested on: LOX IMVI melanoma
MOLT-4 leukemia = tested on: MOLT-4 leukemia
COLO 205 colon = tested on: COLO 205 colon
MDA-MB-231 breast = tested on: MDA-MB-231 breast
OVCAR-4 ovarian = tested on: OVCAR-4 ovarian
OVCAR-5 ovarian = tested on: OVCAR-5 ovarian
A549 NSCLC = tested on: A549 NSCLC
SF-539 CNS = tested on: SF-539 CNS
HCT-116 colon = tested on: HCT-116 colon
MALME-3M melanoma = tested on: MALME-3M melanoma
A498 renal = tested on: A498 renal
HT29 colon = tested on: HT29 colon
CAKI-1 renal = tested on: CAKI-1 renal
SK-OV-3 ovarian = tested on: SK-OV-3 ovarian
SW-620 colon = tested on: SW-620 colon
RXF 393 renal = tested on: RXF 393 renal
SNB-19 CNS = tested on: SNB-19 CNS
K-562 leukemia = tested on: K-562 leukemia
SF-268 CNS = tested on: SF-268 CNS
HOP-62 NSCLC = tested on: HOP-62 NSCLC
SF-295 CNS = tested on: SF-295 CNS
MCF7 breast = tested on: MCF7 breast
MDA-MB-435 = tested on: MDA-MB-435
HCT-15 colon = tested on: HCT-15 colon
PC-3 prostate = tested on: PC-3 prostate
NCI-H522 lung = tested on: NCI-H522 lung
HCC-2998 colon = tested on: HCC-2998 colon
IGROV1 ovarian = tested on: IGROV1 ovarian
SNB-75 CNS = tested on: SNB-75 CNS
SN12C renal = tested on: SN12C renal
RPMI-8226 leukemia = tested on: RPMI-8226 leukemia
SK-MEL-2 melanoma = tested on: SK-MEL-2 melanoma
NCI-H460 lung = tested on: NCI-H460 lung
SK-MEL-28 melanoma = tested on: SK-MEL-28 melanoma
M14 melanoma = tested on: M14 melanoma
T-47D breast = tested on: T-47D breast
OVCAR-8 ovarian = tested on: OVCAR-8 ovarian
HS 578T breast = tested on: HS 578T breast
DU-145 prostate = tested on: DU-145 prostate
UO-31 renal = tested on: UO-31 renal
NCI-H23 lung = tested on: NCI-H23 lung
CCRF-CEM leukemia = tested on: CCRF-CEM leukemia

SMILES: O=C(NN1C(=O)CSC12CCCCC2)c1[nH]c2ccc(Br)cc2c1-c1ccccc1
- GI50 (TK-10 renal): 17 µM
- TGI (TK-10 renal): 33.2 µM
- GI50 (UACC-62 melanoma): 10.9 µM
- TGI (UACC-62 melanoma): 39.8 µM
- GI50 (SK-MEL-5 melanoma): 31.2 µM
- TGI (SK-MEL-5 melanoma): > 100 µM
- GI50 (786-0 renal): 18.9 µM
- TGI (786-0 renal): 38.9 µM
- GI50 (UACC-257 melanoma): 26.4 µM
- TGI (UACC-257 melanoma): 72.5 µM
- GI50 (U251 CNS): 15.8 µM
- TGI (U251 CNS): 31.9 µM
- GI50 (OVCAR-3 ovarian): 15.5 µM
- TGI (OVCAR-3 ovarian): 29.4 µM
- GI50 (KM12 colon): 16.9 µM
- TGI (KM12 colon): 33.4 µM
- GI50 (HOP-92 NSCLC): 20.7 µM
- TGI (HOP-92 NSCLC): 42.3 µM
- GI50 (BT-549 breast): 20.1 µM
- TGI (BT-549 breast): 44.4 µM
- GI50 (EKVX NSCLC): 48.2 µM
- TGI (EKVX NSCLC): > 100 µM
- GI50 (ACHN renal): 22.6 µM
- TGI (ACHN renal): 58.1 µM
- GI50 (NCI-H226 lung): 23 µM
- TGI (NCI-H226 lung): 55.7 µM
- GI50 (LOX IMVI melanoma): 22 µM
- TGI (LOX IMVI melanoma): 50.3 µM
- GI50 (MOLT-4 leukemia): 8.79 µM
- TGI (MOLT-4 leukemia): 46.9 µM
- GI50 (COLO 205 colon): 26.9 µM
- TGI (COLO 205 colon): > 100 µM
- GI50 (MDA-MB-231 breast): 20.4 µM
- TGI (MDA-MB-231 breast): 42.3 µM
- GI50 (OVCAR-4 ovarian): 13.3 µM
- TGI (OVCAR-4 ovarian): 39.6 µM
- GI50 (OVCAR-5 ovarian): 31.3 µM
- TGI (OVCAR-5 ovarian): 95.5 µM
- GI50 (A549 NSCLC): 15 µM
- TGI (A549 NSCLC): 30.5 µM
- GI50 (SF-539 CNS): 21 µM
- TGI (SF-539 CNS): 39.9 µM
- GI50 (HCT-116 colon): 16.4 µM
- TGI (HCT-116 colon): 35.3 µM
- GI50 (MALME-3M melanoma): 20.3 µM
- TGI (MALME-3M melanoma): 41.3 µM
- GI50 (A498 renal): 24.1 µM
- TGI (A498 renal): 60.5 µM
- GI50 (HT29 colon): 13.9 µM
- TGI (HT29 colon): 31.5 µM
- GI50 (CAKI-1 renal): 25.5 µM
- TGI (CAKI-1 renal): 80 µM
- GI50 (SK-OV-3 ovarian): 46.3 µM
- TGI (SK-OV-3 ovarian): > 100 µM
- GI50 (SW-620 colon): 34.7 µM
- TGI (SW-620 colon): > 100 µM
- GI50 (RXF 393 renal): 14.2 µM
- TGI (RXF 393 renal): 30.3 µM
- GI50 (SNB-19 CNS): 24.1 µM
- TGI (SNB-19 CNS): 64.2 µM
- GI50 (K-562 leukemia): 13.4 µM
- TGI (K-562 leukemia): 56.6 µM
- GI50 (SF-268 CNS): 20.3 µM
- TGI (SF-268 CNS): 67.1 µM
- GI50 (HOP-62 NSCLC): 23.6 µM
- TGI (HOP-62 NSCLC): 51.4 µM
- GI50 (SF-295 CNS): 16.2 µM
- TGI (SF-295 CNS): 31.9 µM
- GI50 (MCF7 breast): 14.6 µM
- TGI (MCF7 breast): 31.5 µM
- GI50 (MDA-MB-435): 18.8 µM
- TGI (MDA-MB-435): 48.9 µM
- GI50 (HCT-15 colon): 17.1 µM
- TGI (HCT-15 colon): 39.7 µM
- GI50 (PC-3 prostate): 16.5 µM
- TGI (PC-3 prostate): 32.2 µM
- GI50 (NCI-H522 lung): 18.7 µM
- TGI (NCI-H522 lung): 49.5 µM
- GI50 (HCC-2998 colon): 25.2 µM
- TGI (HCC-2998 colon): 70.4 µM
- GI50 (IGROV1 ovarian): 11.3 µM
- TGI (IGROV1 ovarian): 28.6 µM
- GI50 (SNB-75 CNS): 15.9 µM
- TGI (SNB-75 CNS): 33.7 µM
- GI50 (SN12C renal): 17.6 µM
- TGI (SN12C renal): 34.9 µM
- GI50 (RPMI-8226 leukemia): 12.7 µM
- TGI (RPMI-8226 leukemia): 33.2 µM
- GI50 (SK-MEL-2 melanoma): 36.2 µM
- TGI (SK-MEL-2 melanoma): > 100 µM
- GI50 (NCI-H460 lung): 20.7 µM
- TGI (NCI-H460 lung): 57.9 µM
- GI50 (SK-MEL-28 melanoma): 24.8 µM
- TGI (SK-MEL-28 melanoma): 69 µM
- GI50 (M14 melanoma): 27 µM
- TGI (M14 melanoma): 79.7 µM
- GI50 (T-47D breast): 27.9 µM
- TGI (T-47D breast): > 100 µM
- GI50 (OVCAR-8 ovarian): 16.3 µM
- TGI (OVCAR-8 ovarian): 30.1 µM
- GI50 (HS 578T breast): 23.1 µM
- TGI (HS 578T breast): 66.1 µM
- GI50 (DU-145 prostate): 19.1 µM
- TGI (DU-145 prostate): 38.8 µM
- GI50 (UO-31 renal): 22.4 µM
- TGI (UO-31 renal): 68.9 µM
- GI50 (NCI-H23 lung): 19.4 µM
- TGI (NCI-H23 lung): 41.5 µM
- GI50 (CCRF-CEM leukemia): 19.6 µM
- TGI (CCRF-CEM leukemia): 52.8 µM
